# In US20170196834A1, “PREPARATION AND APPLICATION OF FLAVONOL AS BRAIN-TARGETING SYNERGIST” (GUANGDONG PHARMACEUTICAL UNIVERSITY, priority 2014, published 2017):
# Tests used:
# [1] = Vinpocetine, edaravone, oxiracetam in blood and brain tissue 0.5 h after intragastric administration, UPLC-MS (Example 6); type: in vivo; details: rat, oral, SD rats, intragastric 100 mg/kg
# Procedure: Treatment Group: LXN6, LXN7, LXN8 were made into suspensions respectively. Five SD rats were administered the suspensions at the dose of 100 mg/kg and the volume of 20 ml/kg by intragastric administration;
# Control group: vinpocetine, edaravone, oxiracetam were made into suspension. Five SD rats were administered the suspension at the dose of 100 mg/kg and the volume of 20 ml/kg by intragastric administration;
# The rats were drewd blood 0.5 h after administration, then sacrificed under anaesthesia. Brain tissues were taken to prepare brain homogenates. The content of active ingredient in the blood and brain tissues was detected by UPLC-MS.
# MCAO forebrain ischemia = MCAO forebrain ischemia rats, infarction area, nerve regeneration, learning and memory (Example 6); type: in vivo; details: 100 mg vinpocetine/edaravone/oxiracetam per kg, intragastric, 7 days after administration
# Procedure: In addition, 70 rats of MCAO forebrain ischemia were prepared, and they were administrated with solvent saline, or administrated with LXN6, LXN7 or LXN8, containing vinpocetine, edaravone or oxiracetam, respectively, at a dosage of 100 mg vinpocetine/edaravone/oxiracetam per kg body weight, or administrated with vinpocetine, edaravone or oxiracetam at a dosage of 100 mg/kg.
# Intragastric administration at an amount of 20 ml/kg was conducted, for 10 rats per group; Animals were sacrificed 7 days after administration, to observe the improvement rate of cerebral infarction area and the improvement rate of nerve regeneration, learning and memory ability.
# [2] = water; cited from earlier work
# [3] = Levodopa in blood and brain tissues 0.5 h after intragastric administration, UPLC-MS (Example 7); type: in vivo; details: rat, oral, SD rats, intragastric 100 mg/kg levodopa
# Procedure: Five SD rats were administered the suspension at the dose of 100 mg/kg levodopa and the volume of 20 ml/kg by intragastric administration;
# Control group: The levodopa was made into suspension. Five SD rats were administered the suspension at the dose of 100 mg/kg and the volume of 20 ml/kg by intragastric administration;
# The rats were drew blood 0.5 h after administration, and then sacrificed under anaesthesia. Brain tissues were taken to prepare brain homogenates. The content of active ingredient in the blood and brain tissues was detected by UPLC-MS.
# [4] = tested on: 6-hydroxydopamine PD models; assay: 6-hydroxydopamine PD model rats, behavioural indexes; type: in vivo; details: 6-hydroxydopamine PD rats, 100 mg/kg levodopa by gavage, 15 days
# Procedure: Animals were administered for 15 days, to observe the changes of five indexes, including slow-moving test, grasping experiment, tail stiffness, change of tonic symptoms and tremor test.
# Parkinson's disease = assay: Clinical treatment of Parkinson's disease (LXN9, LXN10, levodopa); type: in vivo, human
# Description: (1) Clinical Data and Methods • Same as above.
# Profile of patients: All selected patients were from department of neurology, which diagnosed with Parkinson's disease according to the Parkinson's disease diagnostic criteria in clinical examination during 2010-2014. a total of 120 cases, including 66 males, 54 females; aged 50-78 years, and 62.8 years on average, with the shortest duration of 1 year, and longest duration of 13 years, 3.6 years on average.
# Levodopa tablet group: (specification of 250 mg/tablet) 1 tablet/time, 3 times/d.
# LXN 10 capsule group: 250 mg/capsule, 1 capsule per time, 3 times a day.
# Fifteen days as a course in all groups, a total of 9 months for medication; and during the period, other drugs regulating cerebral vasodilation, brain cell metabolism and neurological functions were discontinued. […]
smiles,measurement,setting,value
"CC1=NN(c2ccccc2)C(=O)C1 [Edaravone, edaravone]",concentration at 0.5 h,"[1]; blood, read-out: Edaravone content in the blood",58300 ng/mL
same,concentration at 0.5 h,"[1]; brain, read-out: Edaravone content in the brain tissue",128 ng/mL
same,Improvement rate of learning and memory,MCAO forebrain ischemia,45.1
same,Infarction area,MCAO forebrain ischemia,24.1%
same,Nerve regeneration rate,MCAO forebrain ischemia,80%
same,Space exploration distance,MCAO forebrain ischemia,51.0 cm
COc1ccc([C@@H]2CC(=O)c3c(O)cc(O[C@@H]4O[C@H](CO[C@@H]5O[C@@H](C)[C@H](O)[C@@H](O)[C@H]5O)[C@@H](O)[C@H](O)[C@H]4O)cc3O2)cc1O [Hesperidin],solubility in water,[2],insoluble in water
O=c1c(O)c(-c2ccc(O)cc2)oc2cc(O)cc(O)c12 [Kaempferol],solubility in water,[2],slightly soluble in water
"N[C@@H](Cc1ccc(O)c(O)c1)C(=O)O [Levodopa, levodopa]",concentration at 0.5 h,"[3]; blood, read-out: levodopa Content in the blood",114000 ng/mL
same,concentration at 0.5 h,"[3]; brain, read-out: levodopa Content in the brain tissues",284 ng/mL
same,Duration of slow-moving test,[4],15.5 min
same,EMG group discharge frequency,[4],3.1 times/sec
same,Grip Test Duration,[4],40.1 min
same,Muscle tremor frequency,[4],"10.1 times, minutes"
same,tail stiffness time,[4],10.2 min
same,"Daily Living Activity (UPDRS-II) Score, 1 month after treatment","Parkinson's disease; PD patients, n=40",14.12 ± 5.31
same,"Daily Living Activity (UPDRS-II) Score, 3 months after treatment","Parkinson's disease; PD patients, n=40",12.49 ± 5.10
same,"Daily Living Activity (UPDRS-II) Score, 6 months after treatment","Parkinson's disease; PD patients, n=40",11.12 ± 3.31
same,"Daily Living Activity (UPDRS-II) Score, 12 months after treatment","Parkinson's disease; PD patients, n=40",10.32 ± 3.31
same,"Daily Living Activity (UPDRS-II) Score, Before treatment","Parkinson's disease; PD patients, n=40",15.61 ± 5.71
same,"daily life satisfaction (LSIB) scores, 1 month after treatment","Parkinson's disease; PD patients, n=40",13.11 ± 3.92
same,"daily life satisfaction (LSIB) scores, 3 months after treatment","Parkinson's disease; PD patients, n=40",14.91 ± 3.16
same,"daily life satisfaction (LSIB) scores, 6 months after treatment","Parkinson's disease; PD patients, n=40",16.85 ± 3.15
same,"daily life satisfaction (LSIB) scores, 12 months after treatment","Parkinson's disease; PD patients, n=40",17.24 ± 3.16
same,"daily life satisfaction (LSIB) scores, Before treatment","Parkinson's disease; PD patients, n=40",12.59 ± 2.02
same,"motor complications (UPDRS-IV) scores, 1 month after treatment","Parkinson's disease; PD patients, n=40",2.93 ± 0.86
same,"motor complications (UPDRS-IV) scores, 3 months after treatment","Parkinson's disease; PD patients, n=40",2.46 ± 0.61
same,"motor complications (UPDRS-IV) scores, 6 months after treatment","Parkinson's disease; PD patients, n=40",2.15 ± 0.56
same,"motor complications (UPDRS-IV) scores, 12 months after treatment","Parkinson's disease; PD patients, n=40",1.79 ± 0.56
same,"motor complications (UPDRS-IV) scores, Before treatment","Parkinson's disease; PD patients, n=40",3.59 ± 1.02
same,"motor function examination (UPDRS-III) scores, 1 month after treatment","Parkinson's disease; PD patients, n=40",34.16 ± 7.91
same,"motor function examination (UPDRS-III) scores, 3 months after treatment","Parkinson's disease; PD patients, n=40",28.91 ± 6.61
same,"motor function examination (UPDRS-III) scores, 6 months after treatment","Parkinson's disease; PD patients, n=40",24.85 ± 6.56
same,"motor function examination (UPDRS-III) scores, 12 months after treatment","Parkinson's disease; PD patients, n=40",21.15 ± 6.56
same,"motor function examination (UPDRS-III) scores, Before treatment","Parkinson's disease; PD patients, n=40",37.99 ± 10.23
same,"psychiatric, behavioral, and emotional scores (UPDRS-1), 1 month after treatment","Parkinson's disease; PD patients, n=40",3.15 ± 0.81
same,"psychiatric, behavioral, and emotional scores (UPDRS-1), 3 months after treatment","Parkinson's disease; PD patients, n=40",2.29 ± 0.73
same,"psychiatric, behavioral, and emotional scores (UPDRS-1), 6 months after treatment","Parkinson's disease; PD patients, n=40",1.85 ± 0.53
same,"psychiatric, behavioral, and emotional scores (UPDRS-1), 12 months after treatment","Parkinson's disease; PD patients, n=40",1.79 ± 0.59
same,"psychiatric, behavioral, and emotional scores (UPDRS-1), Before treatment","Parkinson's disease; PD patients, n=40",3.59 ± 1.02
same,Curative effect for PD: Overall response rate (ORR),"Parkinson's disease; clinically cured, markedly effective and effective cases",80%
same,Curative effect for PD: Clinically cured %,Parkinson's disease; of 40 cases,0%
same,Curative effect for PD: Clinically cured n,Parkinson's disease; of 40 cases,0
same,Curative effect for PD: Effective %,Parkinson's disease; of 40 cases,32.2%
same,Curative effect for PD: Effective n,Parkinson's disease; of 40 cases,13
same,Curative effect for PD: Ineffective %,Parkinson's disease; of 40 cases,20.0%
same,Curative effect for PD: Ineffective n,Parkinson's disease; of 40 cases,8
same,Curative effect for PD: Markedly effective %,Parkinson's disease; of 40 cases,47.8%
same,Curative effect for PD: Markedly effective n,Parkinson's disease; of 40 cases,19
"NC(=O)CN1CC(O)CC1=O (stereo not shown) [Oxiracetam, oxiracetam]",concentration at 0.5 h,"[1]; blood, read-out: Oxiracetam content in the blood",82300 ng/mL
same,concentration at 0.5 h,"[1]; brain, read-out: Oxiracetam content in the brain tissue",173 ng/mL
same,Improvement rate of learning and memory,MCAO forebrain ischemia,56.9
same,Infarction area,MCAO forebrain ischemia,24.5%
same,Nerve regeneration rate,MCAO forebrain ischemia,85%
same,Space exploration distance,MCAO forebrain ischemia,54.0 cm
